From the supplement of paper PMC10307832

Assays:
Assay in all cases: relative viability (nuclei count vs DMSO), 5 days (fraction); higher = more cells survive
[1] = compound: C1=CC2=NC=CN=C2C=C1/C=C/3\C(=O)NC(=O)S3
In short: (§1)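 Lung cancer cell lines received five library-drug doses (not always all listed) spaced by √10, pinned on vehicle-anchored 1536-well plates after an overnight stay at 37 °C. Five days later, with no medium change, nuclei were Hoechst-stained, imaged at 4× and counted with MetaXpress. Viability is treated-well nuclei relative to vehicle-well nuclei, as a median across plates. Passing plates had control CV below 25% and at least one doubling.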

BGJ398 = compound: CCN1CCN(c2ccc(Nc3cc(N(C)C(=O)Nc4c(Cl)c(OC)cc(OC)c4Cl)ncn3)cc2)CC1 [BGJ398]
In short: as §1

[2] = compound: C1=CC2=NC=CN=C2C=C1/C=C/3\C(=O)NC(=O)S3 + CC1(C)CCC(c2ccc(Cl)cc2)=C(CN2CCN(c3ccc(C(=O)NS(=O)(=O)c4ccc(N[C@H](CCN5CCOCC5)CSc5ccccc5)c(S(=O)(=O)C(F)(F)F)c4)cc3)CC2)C1 [Navitoclax] (partner 0.5 µM)
In short: (§2)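 Relative viability was taken as the ratio of nuclei in treated wells to nuclei in vehicle wells. Lung cancer cell lines in 1536-well plates received compounds by pin tool one day after seeding, either one drug alone or a fixed anchor-drug dose plus five library-drug doses (not always all listed) in √10 steps. Nuclei were counted on 4× images after 5 days of treatment, and values are medians of duplicate plates.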

BGJ398 + Phenformin = compound: CCN1CCN(c2ccc(Nc3cc(N(C)C(=O)Nc4c(Cl)c(OC)cc(OC)c4Cl)ncn3)cc2)CC1 [BGJ398] + N=C(N)NC(=N)NCCc1ccccc1 [Phenformin] (partner 250 µM)
In short: as §2

Cell Line | relative viability ([1]; 0.02 µM) | relative viability ([1]; 0.06325 µM) | relative viability ([1]; 0.2 µM) | relative viability ([1]; 0.6325 µM) | relative viability ([1]; 2 µM) | relative viability (BGJ398; 0.01 µM) | relative viability (BGJ398; 0.03162 µM) | relative viability (BGJ398; 0.1 µM) | relative viability (BGJ398; 0.3162 µM) | relative viability (BGJ398; 1 µM) | relative viability ([2]; first compound 0.02 µM) | relative viability ([2]; first compound 0.06325 µM) | relative viability ([2]; first compound 0.2 µM) | relative viability ([2]; first compound 0.6325 µM) | relative viability ([2]; first compound 2 µM) | relative viability (BGJ398 + Phenformin; first compound 0.01 µM) | relative viability (BGJ398 + Phenformin; first compound 0.03162 µM) | relative viability (BGJ398 + Phenformin; first compound 0.1 µM) | relative viability (BGJ398 + Phenformin; first compound 0.3162 µM) | relative viability (BGJ398 + Phenformin; first compound 1 µM)
BEN | 0.922 | 0.922 | 1.03 | 0.961 | 0.839 | 0.891 | 0.964 | 0.947 | 0.845 | 0.809 | 0.0591 | 0.0567 | 0.065 | 0.0608 | 0.0653 | 0.263 | 0.284 | 0.284 | 0.261 | 0.241
EMC-BAC-2 | 0.951 | 1.1 | 1.1 | 0.944 | 0.554 | 1.17 | 1.15 | 0.964 | 0.945 | 0.942 | 1.11 | 1.03 | 1.15 | 1.12 | 1.25 | 0.497 | 0.585 | 0.558 | 0.5 | 0.509
LU99A | 1.07 | 1.11 | 0.979 | 0.871 | 0.518 | 0.884 | 0.95 | 0.89 | 0.908 | 0.792 | 0.77 | 0.993 | 0.746 | 0.876 | 0.64 | 0.937 | 0.934 | 0.925 | 0.765 | 0.765
NCI-H2170 | 0.909 | 1 | 1.01 | 0.938 | 0.998 | 0.988 | 1.06 | 1.1 | 1.03 | 1.07 | 0.527 | 0.521 | 0.607 | 0.563 | 0.501 | 0.374 | 0.428 | 0.448 | 0.393 | 0.341
NCI-H2347 | 0.971 | 0.913 | 1 | 1 | 0.918 | 0.957 | 1.09 | 1.06 | 1.04 | 0.94 | 0.756 | 0.443 | 0.904 | 0.863 | 0.734 | 0.292 | 0.602 | 0.507 | 0.434 | 0.496
NCI-H1993 | 0.815 | 0.956 | 1.02 | 0.923 | 0.622 | 1.24 | 0.893 | 0.957 | 0.972 | 0.886 | 0.759 | 0.982 | 0.921 | 0.956 | 0.743 | 0.554 | 0.485 | 0.479 | 0.523 | 0.575
NCI-H322M | 0.935 | 0.969 | 0.995 | 0.916 | 0.739 | 1.07 | 0.754 | 0.948 | 0.815 | 1.02 | 1.05 | 1.12 | 1.35 | 1.11 | 1.16 | 0.791 | 0.663 | 0.774 | 0.696 | 0.845
NCI-H838 | 0.96 | 0.957 | 1.02 | 0.821 | 0.776 | 0.845 | 0.938 | 0.984 | 0.8 | 0.742 | 1.1 | 1.32 | 1.13 | 1.02 | 1.11 | 0.446 | 0.549 | 0.612 | 0.437 | 0.305
HARA | 0.84 | 0.992 | 0.945 | 0.778 | 0.955 | 1.02 | 0.788 | 0.821 | 0.719 | 0.602 | 1.1 | 1.11 | 1.17 | 1.16 | 1.09 | 0.442 | 0.545 | 0.482 | 0.319 | 0.382
NCI-H2087 | 0.918 | 0.925 | 1.05 | 0.951 | 0.926 | 1.01 | 1.01 | 0.966 | 1.08 | 1.09 | 0.88 | 1.2 | 1.07 | 1.04 | 0.96 | 0.44 | 0.438 | 0.507 | 0.386 | 0.494
NCI-H1437 | 1.01 | 0.983 | 1.04 | 0.964 | 0.703 | 0.978 | 1.01 | 1 | 1 | 0.832 | 1.03 | 1.1 | 1.12 | 1.07 | 0.93 | 0.265 | 0.34 | 0.314 | 0.268 | 0.281
NCI-H1792 | 0.956 | 0.783 | 0.927 | 0.857 | 0.411 | 0.903 | 0.851 | 0.704 | 0.811 | 0.652 | 0.597 | 0.621 | 0.564 | 0.658 | 0.401 | 0.288 | 0.233 | 0.259 | 0.315 | 0.262
ChaGo-K-1 | 0.972 | 0.991 | 1.09 | 0.919 | 0.891 | 1.06 | 0.987 | 1.03 | 1.03 | 1.02 | 1.06 | 1.67 | 1.28 | 0.924 | 0.726 | 0.488 | 0.47 | 0.525 | 0.487 | 0.458
COR-L23 | 0.967 | 1.15 | 1.02 | 0.938 | 0.976 | 0.96 | 1.06 | 1.12 | 1.02 | 1.09 | 0.919 | 1.08 | 1.03 | 0.946 | 0.962 | 0.42 | 0.441 | 0.5 | 0.397 | 0.391
COR-L 105 | 0.904 | 1.05 | 1.01 | 0.912 | 0.741 | 0.875 | 0.744 | 0.961 | 0.83 | 0.875 | 0.697 | 0.703 | 0.821 | 0.678 | 0.999 | 0.425 | 0.377 | 0.525 | 0.556 | 0.448
